Assay [1] deals with T1, recombinant human LTA4 hydrolase (rhLTA4H) (Homo sapiens, UniProt P09960).
T1 construct: made in house; host or cells: Spodoptera frugiperda (Sf-9) cells, baculovirus (pFastBac1)
T1 sequence (P09960 1-611): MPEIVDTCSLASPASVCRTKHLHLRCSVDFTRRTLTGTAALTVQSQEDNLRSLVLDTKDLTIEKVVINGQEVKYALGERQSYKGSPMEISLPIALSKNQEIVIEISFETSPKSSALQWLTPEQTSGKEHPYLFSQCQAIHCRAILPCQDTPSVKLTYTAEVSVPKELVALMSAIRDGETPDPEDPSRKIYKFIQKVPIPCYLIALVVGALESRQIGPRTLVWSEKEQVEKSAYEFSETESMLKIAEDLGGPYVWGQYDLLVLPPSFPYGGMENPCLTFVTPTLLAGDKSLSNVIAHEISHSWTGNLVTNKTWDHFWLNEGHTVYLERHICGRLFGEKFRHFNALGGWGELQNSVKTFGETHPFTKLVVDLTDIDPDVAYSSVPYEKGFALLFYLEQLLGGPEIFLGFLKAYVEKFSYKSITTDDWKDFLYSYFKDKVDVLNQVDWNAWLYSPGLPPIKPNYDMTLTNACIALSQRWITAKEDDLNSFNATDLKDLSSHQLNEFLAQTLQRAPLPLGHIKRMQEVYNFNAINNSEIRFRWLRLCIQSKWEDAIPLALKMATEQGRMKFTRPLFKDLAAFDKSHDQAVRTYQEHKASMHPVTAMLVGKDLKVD
The experiment in a line: Recombinant human LTA4 hydrolase assay for LTA4 hydrolase inhibitor activity. The format is biochemical. As to conditions: rhLTA4H, LTB4 by immunoassay; single determination or average of two or more; mark after value = form tested: ′ free base, ″ hydrochloride, ^ formate; read-out: IC50. An outline of the steps:
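Baculovirus/Sf-9-expressed human LTA4H (10 ng) was preincubated 10 min at rt with compound in assay buffer (10% DMSO in compound dilution), then reacted 30 min at rt with LTA4 free acid made from its methyl ester. LTB4 produced was measured by ELISA after dilution; IC50 from non-linear regression, single or averaged determinations.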

The subject of assay [2] is LTB4 production in murine blood (LTA4H). The experiment in a line: LTB4 production by calcium ionophore-stimulated murine blood for LTA4H inhibitor activity. The format is cell-based, CD-1 mice. Conditions: Mus musculus. An outline of the steps: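 Heparinized blood from CD-1 mice was preincubated with compound for 15 min at 37° C, then stimulated with calcium ionophore A23187 (final 7 μg/mL) for 30 min. Centrifugation stopped the reaction, and LTB4 in the supernatant was measured by enzyme immunoassay. Values are single determinations or means of two or more.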

[3] abbreviates: murine blood diluted 1 in 15, A23187 stimulated, single determination or average, mark after value = form tested: ′ free base, ″ hydrochloride, ^ formate, read-out: IC50.

Structures can show the parent of a compound that is named as a salt. Where two headings read alike, the source gives them in different places.

On to `CC(=O)N[C@H]1C[C@H]2CC[C@@H](C1)N2Cc1cc2cc(Oc3nc4ncccc4s3)ccc2o1` [Example 87, meso-endo-N-{8-[5-(Thiazolo[4,5-b]pyridin-2-yloxy)-benzofuran-2-ylmethyl]-8-aza-bicyclo[3.2.1]oct-3-yl}-acetamide], for which the IC50 in assay [1] was determined as 35 nM; in assay [2] (setting [3]), 77 nM.

Turning to `c1cnc2nc(Oc3ccc4c(CN5CCC(N6CCCC6)CC5)coc4c3)sc2c1` [Example 283, 2-[3-(4-Pyrrolidin-1-yl-piperidin-1-ylmethyl)-benzofuran-6-yloxy]-thiazolo[4,5-b]pyridine formate], the values for the IC50 in assay [1] and in assay [2] (setting [3]) were 35 nM and 130 nM, respectively.

With `CN(Cc1cccnc1)Cc1coc2cc(Oc3nc4ncccc4s3)ccc12` [Example 178, Methyl-pyridin-3-ylmethyl-[6-(thiazolo[4,5-b]pyridin-2-yloxy)-benzofuran-3-ylmethyl]-amine], the IC50 in assay [1] is 20 nM; in assay [2] (setting [3]), 290 nM.

Take `NC(=O)N1CCC(N(Cc2coc3cc(Oc4nc5ncccc5s4)ccc23)C2CC2)CC1` [Example 242, 4-{Cyclopropyl-[6-(thiazolo[4,5-b]pyridin-2-yloxy)-benzofuran-3-ylmethyl]-amino}-piperidine-1-carboxylic acid amide]: the half-maximal inhibitory concentration (IC50) is 32 nM in assay [1] and 68 nM in assay [2] (setting [3]).

In the case of `c1cnc2nc(Oc3ccc4cc(CN5CCCCC5)oc4c3)sc2c1` [Example 192, 2-(2-Piperidin-1-ylmethyl-benzofuran-6-yloxy)-thiazolo[4,5-b]pyridine formate], the figures for the IC50 in assay [1] and in assay [2] were 43 nM and 120 nM, respectively.

Take `O=C(O)CC1CCN(Cc2c[nH]c3cc(Oc4nc5ccccc5s4)ccc23)CC1` [Example 46, {1-[6-(Benzothiazol-2-yloxy)-1H-indol-3-ylmethyl]-piperidin-4-yl}-acetic acid]: the IC50 was found to be 15 nM in assay [1] and 667 nM in assay [2] (setting [3]).

With `Clc1ccc2sc3c(c2c1)CN(Cc1c[nH]c2cc(Oc4nc5ncccc5s4)ccc12)CC3` [Example 36, 8-Chloro-2-[6-(thiazolo[4,5-b]pyridin-2-yloxy)-1H-indol-3-ylmethyl]-1,2,3,4-tetrahydro-benzo[4,5]thieno[3,2-c]pyridine formate], the IC50 amounted to 77 nM in assay [1] and 423 nM in assay [2] (setting [3]).

On to `c1cnc2nc(Oc3ccc4c(CNCCN5CCOCC5)coc4c3)sc2c1` [Example 306, (2-Morpholin-4-yl-ethyl)-[6-(thiazolo[4,5-b]pyridin-2-yloxy)-benzofuran-3-ylmethyl]-amine formate], for which the values for the IC50 in assay [1] and in assay [2] (setting [3]) were 95 nM and 10 nM, respectively.

For the molecule `c1cnc2nc(Oc3ccc4c(CN5CCN(C6CC6)CC5)coc4c3)sc2c1` [Example 277, 2-[3-(4-Cyclopropyl-piperazin-1-ylmethyl)-benzofuran-6-yloxy]-thiazolo[4,5-b]pyridine], the IC50 in assay [1] was determined as 12 nM; in assay [2] (setting [3]), 130 nM.

Regarding `c1ccc2c(c1)CCN(Cc1c[nH]c3cc(Oc4nc5ccccc5s4)ccc13)C2` [Example 7, 2-[6-(Benzothiazol-2-yloxy)-1H-indol-3-ylmethyl]-1,2,3,4-tetrahydro-isoquinoline], the figures for the IC50 in assay [1] and in assay [2] (setting [3]) were 42 nM and 476 nM, respectively.

As to `CC1CN(Cc2coc3cc(Oc4nc5ncccc5s4)ccc23)CC(C)O1` (stereo not drawn) [Example 349, 2-[3-(2,6-Dimethyl-morpholin-4-ylmethyl)-benzofuran-6-yloxy]-thiazolo[4,5-b]pyridine], the IC50 in assay [1] came to 26 nM; in assay [2] (setting [3]), 860 nM.

Turning to `CC(=O)N(CC(=O)O)[C@H]1C[C@H]2CC[C@@H](C1)N2Cc1c[nH]c2ccc(Oc3nc4ccccc4s3)cc12` [Example 49, meso-endo-(Acetyl-{8-[5-(benzothiazol-2-yloxy)-1H-indol-3-ylmethyl]-8-aza-bicyclo[3.2.1]oct-3-yl}-amino)-acetic acid], the 50% inhibitory concentration (IC50) was determined as 13 nM in assay [1] and 10000 nM in assay [2] (setting [3]).

For the molecule `c1ccc2sc(Oc3ccc4c(CN5CCCCC5)c[nH]c4c3)nc2c1` [Example 2, 2-(3-Piperidin-1-ylmethyl-1H-indol-6-yloxy)-benzothiazole], the IC50 was found to be 19 nM in assay [1] and 78 nM in assay [2] (setting [3]).

On to `Fc1ccc(CNCc2coc3cc(Oc4nc5ncccc5s4)ccc23)cc1` [Example 345, (4-Fluoro-benzyl)-[6-(thiazolo[4,5-b]pyridin-2-yloxy)-benzofuran-3-ylmethyl]-amine], for which the results for the IC50 in assay [1] and in assay [2] (setting [3]) were 7 nM and 72 nM, respectively.

For the molecule `NC(=O)N1C[C@H]2CC[C@@H](C1)N2Cc1coc2cc(Oc3nc4ncccc4s3)ccc12` [Example 210, meso-8-[6-(Thiazolo[4,5-b]pyridin-2-yloxy)-benzofuran-3-ylmethyl]-3,8-diaza-bicyclo[3.2.1]octane-3-carboxylic acid amide], the IC50 in assay [1] came out at 5 nM; in assay [2] (setting [3]), 34 nM.

As for `CCOC(=O)C1CCN(Cc2coc3cc(Oc4nc5ncccc5s4)ccc23)CC1` [Example 224, 1-[6-(Thiazolo[4,5-b]pyridin-2-yloxy)-benzofuran-3-ylmethyl]-piperidine-4-carboxylic acid ethyl ester], the IC50 in assay [1] worked out at 2 nM; in assay [2] (setting [3]), 366 nM.

`c1cnc2nc(Oc3ccc4c(CN5CCC(c6ccncc6)CC5)coc4c3)sc2c1` [Example 220, 1-[6-(Thiazolo[4,5-b]pyridin-2-yloxy)-benzofuran-3-ylmethyl]-1,2,3,4,5,6-hexahydro-[4,4′]bipyridinyl]: the figures for the IC50 in assay [1] and in assay [2] (setting [3]) were 5 nM and 12 nM, respectively.

As to `c1ccc2sc(Oc3ccc4[nH]c(CN5CCCCC5)cc4c3)nc2c1` [Example 65, 2-(2-Piperidin-1-ylmethyl-1H-indol-5-yloxy)-benzothiazole], the half-inhibitory concentration (IC50) is 100 nM in assay [1] and 1110 nM in assay [2] (setting [3]).

Consider `CS(=O)(=O)C1CCN(Cc2c[nH]c3cc(Oc4nc5ccccc5s4)ccc23)CC1` [Example 4, 2-[3-(4-Methanesulfonyl-piperidin-1-ylmethyl)-1H-indol-6-yloxy]-benzothiazole], for which the IC50 in assay [1] was determined as 23 nM; in assay [2] (setting [3]), 190 nM.

Consider `O=C(C1CCN(Cc2c[nH]c3cc(Oc4nc5ccccc5s4)ccc23)CC1)N1CCOCC1` [Example 25, {1-[6-(Benzothiazol-2-yloxy)-1H-indol-3-ylmethyl]-piperidin-4-yl}-morpholin-4-yl-methanone], for which the figures for the IC50 in assay [1] and in assay [2] (setting [3]) were 2 nM and 100 nM, respectively.

On to `CC(=O)N[C@H]1C[C@H]2CC[C@@H](C1)N2Cc1coc2cc(Oc3nc4ccccc4s3)ccc12` [Example 181, meso-endo-N-{8-[6-(Benzothiazol-2-yloxy)-benzofuran-3-ylmethyl]-8-aza-bicyclo[3.2.1]oct-3-yl}-acetamide], for which the results for the IC50 in assay [1] and in assay [2] (setting [3]) were 3 nM and 33 nM, respectively.

For `FC1(F)CN(Cc2coc3cc(Oc4nc5ncccc5s4)ccc23)C1` [Example 316, 2-[3-(3,3-Difluoro-azetidin-1-ylmethyl)-benzofuran-6-yloxy]-thiazolo[4,5-b]pyridine], the IC50 worked out at 29 nM in assay [1] and 120 nM in assay [2] (setting [3]).

For the molecule `CC1CCN(Cc2coc3cc(Oc4nc5ncccc5s4)ccc23)CC1` [Example 286, 2-[3-(4-Methyl-piperidin-1-ylmethyl)-benzofuran-6-yloxy]-thiazolo[4,5-b]pyridine formate], the half-inhibitory concentration (IC50) came out at 1 nM in assay [1] and 55 nM in assay [2] (setting [3]).

Turning to `CC(=O)NC1CCN(Cc2coc3cc(Oc4nc5ccccc5s4)ccc23)CC1` [Example 180, N-{1-[6-(Benzothiazol-2-yloxy)-benzofuran-3-ylmethyl]-piperidin-4-yl}-acetamide], the IC50 in assay [1] worked out at 21 nM; in assay [2] (setting [3]), 38 nM.

`CCOC(=O)NC1CCN(Cc2c[nH]c3cc(Oc4nc5ccccc5s4)ccc23)CC1` [Example 29, {1-[6-(Benzothiazol-2-yloxy)-1H-indol-3-ylmethyl]-piperidin-4-yl}-carbamic acid ethyl ester]: the IC50 in assay [1] amounted to 15 nM; in assay [2] (setting [3]), 234 nM.

In the case of `CC(=O)N[C@@H]1CCN(Cc2coc3cc(Oc4nc5ncccc5s4)ccc23)C1` [Example 324, (R)—N-{1-[6-(Thiazolo[4,5-b]pyridin-2-yloxy)-benzofuran-3-ylmethyl]-pyrrolidin-3-yl}-acetamide], the IC50 was determined as 8 nM in assay [1] and 16 nM in assay [2] (setting [3]).

On to `NC(=O)C1CCN(Cc2cc3cc(Oc4nc5ncccc5s4)ccc3o2)CC1` [Example 88, 1-[5-(Thiazolo[4,5-b]pyridin-2-yloxy)-benzofuran-2-ylmethyl]-piperidine-4-carboxylic acid amide], for which the 50% inhibitory concentration (IC50) in assay [1] worked out at 11 nM; in assay [2] (setting [3]), 320 nM.

The term IC50 denotes the concentration that gives 50% inhibition.
